The text below walks through data of patent US9834571B2, “Compounds for inhibiting cell proliferation in EGFR-driven cancers” (ARIAD Pharmaceuticals, Inc., priority 2012, dated 2017).

In experiment [1] the test system is BaF3 cells expressing wildtype EGFR. The experiment in a line: Antiproliferative activity (MTT) against control BaF3 cells expressing wildtype EGFR. The experiment is classed as cell-based. As to conditions: Mus musculus, BAF3 PARENTAL cells (control). The method, then: (§1) We also assessed the antiproliferative activity of compounds of Formula (I) against BaF3 cells expressing the target EGFR mutations or control (i.e., cell lines expressing wildtype EGFR). Assays were conducted using MTT.

For experiment [2], the target named is human EGFR (native sequence) (Homo sapiens, UniProt P00533). Kind of experiment: Kinase inhibitory activity against human EGFR (native sequence). In kind it is biochemical. As to conditions: human EGFR native sequence; 10 μM ATP; read-out: IC50 for kinase inhibition, EGFR. As for the experimental part:
(§2) Kinase inhibitory activity of the compounds was measured against human EGFR (native sequence) and against EGFR bearing the L858R mution and the L858R/T790M double mutation (EGFR, L858R, and L858R/T790M, respectively in Table 1). Additional assays can be conducted with EGFR deletion mutants such as delE746-A750 with or without the additional T790M mutation. Assay conditions included 10 pt curves with 3 μM top concentration (singlicates) and 10 μM ATP.

The target in experiment [3] is T1, BaF3 cells expressing the target EGFR mutations (Homo sapiens, UniProt P00533, T790M/L858R, cells depend on it).
T1 construct: IC50, BAF3 EGFR L858R-T790M PURO POOL; other: BAF3 EGFR L858R-T790M PURO POOL cells, MTT; IC50, BAF3 EGFR L858R-T790M PURO POOL; other: BAF3 EGFR L858R-T790M PURO POOL cells; MTT
The experiment in a line: Antiproliferative activity (MTT) against BaF3 cells expressing the target EGFR mutations. In kind it is cell-based. As to conditions: BAF3 EGFR L858R-T790M PURO POOL cells, read-out: IC50, BAF3 EGFR L858R-T790M PURO POOL. The method, then: as §1

For experiment [4], the target named is T2, BaF3 cells expressing the target EGFR mutations (Homo sapiens, UniProt P00533, T790M, cells depend on it, form not given).
T2 construct: IC50, BAF3 EGFR DEL T790M PURO POOL; other: BAF3 EGFR DEL T790M PURO POOL cells, MTT; other: BAF3 EGFR DEL T790M PURO POOL cells; MTT
The description is as above. As to conditions: BAF3 EGFR DEL T790M PURO POOL cells, read-out: IC50, BAF3 EGFR DEL T790M PURO POOL. The experiment is classed as cell-based. The method, then:
as §1

In another experiment the target is EGFR L858R (Homo sapiens, UniProt P00533, L858R). Kind of experiment: Kinase inhibitory activity against EGFR bearing the L858R mutation. As to conditions: EGFR L858R; 10 μM ATP; read-out: IC50 for kinase inhibition, EGFR L858R. In kind it is biochemical. As for the experimental part: as §2
The target in another experiment is EGFR L858R/T790M (Homo sapiens, UniProt P00533, L858R/T790M). Kind of experiment: Kinase inhibitory activity against EGFR bearing the L858R/T790M double mutation. In kind it is biochemical. As to conditions: EGFR L858R/T790M double mutation; 10 μM ATP; read-out: IC50 for kinase inhibition, EGFR L858R T790M. As for the experimental part: as §2
EGFR L858R/T790M, sequence (P00533 25-1210 T790M/L858R): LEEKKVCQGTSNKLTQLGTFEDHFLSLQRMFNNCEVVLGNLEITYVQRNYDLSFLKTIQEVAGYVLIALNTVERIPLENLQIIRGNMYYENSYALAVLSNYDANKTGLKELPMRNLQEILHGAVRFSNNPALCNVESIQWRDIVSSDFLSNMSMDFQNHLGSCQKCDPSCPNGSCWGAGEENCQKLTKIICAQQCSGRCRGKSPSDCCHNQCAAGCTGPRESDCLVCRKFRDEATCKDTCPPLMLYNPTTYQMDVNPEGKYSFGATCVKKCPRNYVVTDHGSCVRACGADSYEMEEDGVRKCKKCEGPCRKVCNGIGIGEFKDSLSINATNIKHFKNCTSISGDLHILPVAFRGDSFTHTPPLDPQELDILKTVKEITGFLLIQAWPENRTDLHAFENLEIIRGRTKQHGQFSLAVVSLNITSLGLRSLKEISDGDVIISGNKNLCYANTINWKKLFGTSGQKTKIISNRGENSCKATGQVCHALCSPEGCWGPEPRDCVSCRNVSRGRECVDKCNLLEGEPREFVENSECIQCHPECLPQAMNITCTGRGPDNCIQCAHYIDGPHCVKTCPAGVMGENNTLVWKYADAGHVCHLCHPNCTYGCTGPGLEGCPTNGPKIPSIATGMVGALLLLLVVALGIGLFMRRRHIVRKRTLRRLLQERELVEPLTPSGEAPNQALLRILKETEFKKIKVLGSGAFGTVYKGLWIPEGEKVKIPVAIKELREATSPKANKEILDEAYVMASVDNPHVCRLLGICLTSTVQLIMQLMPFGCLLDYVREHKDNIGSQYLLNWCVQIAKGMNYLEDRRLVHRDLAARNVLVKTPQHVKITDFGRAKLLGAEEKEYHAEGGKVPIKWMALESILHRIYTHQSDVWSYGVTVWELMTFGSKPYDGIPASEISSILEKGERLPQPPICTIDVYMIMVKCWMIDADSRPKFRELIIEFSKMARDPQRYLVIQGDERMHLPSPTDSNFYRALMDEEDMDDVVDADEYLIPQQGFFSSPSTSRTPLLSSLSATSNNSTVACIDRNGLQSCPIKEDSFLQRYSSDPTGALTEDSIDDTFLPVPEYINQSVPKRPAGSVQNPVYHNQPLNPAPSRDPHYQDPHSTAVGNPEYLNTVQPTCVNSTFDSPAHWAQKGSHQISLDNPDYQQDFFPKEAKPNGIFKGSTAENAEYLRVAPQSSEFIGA

human EGFR (native sequence), sequence (P00533 25-1210): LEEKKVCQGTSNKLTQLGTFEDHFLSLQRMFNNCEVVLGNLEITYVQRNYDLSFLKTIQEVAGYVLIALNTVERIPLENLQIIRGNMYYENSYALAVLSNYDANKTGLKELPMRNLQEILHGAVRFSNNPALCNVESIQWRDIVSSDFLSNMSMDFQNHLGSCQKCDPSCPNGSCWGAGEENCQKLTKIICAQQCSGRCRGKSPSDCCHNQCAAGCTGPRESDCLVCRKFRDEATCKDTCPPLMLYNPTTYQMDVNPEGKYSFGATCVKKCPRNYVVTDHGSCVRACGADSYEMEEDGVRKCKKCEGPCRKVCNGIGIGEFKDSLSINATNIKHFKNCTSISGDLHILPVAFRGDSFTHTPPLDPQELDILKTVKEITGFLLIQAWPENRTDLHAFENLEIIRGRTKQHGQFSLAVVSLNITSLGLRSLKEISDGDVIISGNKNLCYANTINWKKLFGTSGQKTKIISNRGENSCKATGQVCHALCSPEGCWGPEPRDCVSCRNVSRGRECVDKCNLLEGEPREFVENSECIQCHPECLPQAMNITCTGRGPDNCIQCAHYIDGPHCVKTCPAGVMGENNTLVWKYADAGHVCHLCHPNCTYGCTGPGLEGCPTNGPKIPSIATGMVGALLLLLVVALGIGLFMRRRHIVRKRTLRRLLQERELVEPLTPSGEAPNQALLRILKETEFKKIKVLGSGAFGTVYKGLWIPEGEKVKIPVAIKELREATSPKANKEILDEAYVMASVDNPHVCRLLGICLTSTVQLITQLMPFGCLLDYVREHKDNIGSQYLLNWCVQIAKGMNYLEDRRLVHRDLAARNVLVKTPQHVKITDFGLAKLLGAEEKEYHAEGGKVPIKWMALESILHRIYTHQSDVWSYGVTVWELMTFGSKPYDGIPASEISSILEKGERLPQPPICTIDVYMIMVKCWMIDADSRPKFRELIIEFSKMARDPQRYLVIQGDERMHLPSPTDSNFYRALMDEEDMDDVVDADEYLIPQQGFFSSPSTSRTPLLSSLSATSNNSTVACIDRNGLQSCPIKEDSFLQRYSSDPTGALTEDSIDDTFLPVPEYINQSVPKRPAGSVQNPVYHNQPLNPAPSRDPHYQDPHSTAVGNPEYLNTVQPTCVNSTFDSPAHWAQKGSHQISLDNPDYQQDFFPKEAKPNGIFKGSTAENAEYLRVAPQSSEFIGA
EGFR L858R, sequence (P00533 25-1210 L858R): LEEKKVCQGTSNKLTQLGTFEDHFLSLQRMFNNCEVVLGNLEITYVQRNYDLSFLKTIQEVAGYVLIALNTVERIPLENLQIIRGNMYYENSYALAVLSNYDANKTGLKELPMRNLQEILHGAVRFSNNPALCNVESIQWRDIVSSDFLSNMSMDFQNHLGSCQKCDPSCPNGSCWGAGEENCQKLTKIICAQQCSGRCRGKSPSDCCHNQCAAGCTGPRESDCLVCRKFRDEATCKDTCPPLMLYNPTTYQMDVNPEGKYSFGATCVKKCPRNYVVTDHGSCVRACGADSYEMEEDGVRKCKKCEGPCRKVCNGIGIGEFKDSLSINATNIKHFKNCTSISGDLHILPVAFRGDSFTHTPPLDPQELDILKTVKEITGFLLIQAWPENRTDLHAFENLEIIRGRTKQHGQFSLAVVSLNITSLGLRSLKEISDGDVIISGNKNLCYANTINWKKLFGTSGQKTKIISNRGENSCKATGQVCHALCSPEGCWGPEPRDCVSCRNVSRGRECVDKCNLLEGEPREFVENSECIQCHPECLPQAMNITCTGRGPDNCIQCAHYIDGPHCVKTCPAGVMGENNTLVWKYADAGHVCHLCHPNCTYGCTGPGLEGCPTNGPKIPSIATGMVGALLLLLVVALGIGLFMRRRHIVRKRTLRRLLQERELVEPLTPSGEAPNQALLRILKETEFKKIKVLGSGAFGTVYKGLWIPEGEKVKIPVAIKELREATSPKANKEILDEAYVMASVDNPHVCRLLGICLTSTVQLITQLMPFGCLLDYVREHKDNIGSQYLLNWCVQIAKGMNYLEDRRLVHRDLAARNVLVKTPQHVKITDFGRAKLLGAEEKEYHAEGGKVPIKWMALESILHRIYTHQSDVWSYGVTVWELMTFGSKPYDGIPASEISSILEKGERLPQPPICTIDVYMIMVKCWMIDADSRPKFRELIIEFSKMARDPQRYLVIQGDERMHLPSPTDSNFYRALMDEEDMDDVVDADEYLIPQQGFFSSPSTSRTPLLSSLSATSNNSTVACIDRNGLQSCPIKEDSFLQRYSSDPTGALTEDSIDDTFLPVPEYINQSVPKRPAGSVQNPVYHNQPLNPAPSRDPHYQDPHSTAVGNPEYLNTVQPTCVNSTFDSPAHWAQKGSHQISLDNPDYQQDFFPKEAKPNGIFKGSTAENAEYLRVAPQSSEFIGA
T1 sequence (P00533 whole entry T790M/L858R): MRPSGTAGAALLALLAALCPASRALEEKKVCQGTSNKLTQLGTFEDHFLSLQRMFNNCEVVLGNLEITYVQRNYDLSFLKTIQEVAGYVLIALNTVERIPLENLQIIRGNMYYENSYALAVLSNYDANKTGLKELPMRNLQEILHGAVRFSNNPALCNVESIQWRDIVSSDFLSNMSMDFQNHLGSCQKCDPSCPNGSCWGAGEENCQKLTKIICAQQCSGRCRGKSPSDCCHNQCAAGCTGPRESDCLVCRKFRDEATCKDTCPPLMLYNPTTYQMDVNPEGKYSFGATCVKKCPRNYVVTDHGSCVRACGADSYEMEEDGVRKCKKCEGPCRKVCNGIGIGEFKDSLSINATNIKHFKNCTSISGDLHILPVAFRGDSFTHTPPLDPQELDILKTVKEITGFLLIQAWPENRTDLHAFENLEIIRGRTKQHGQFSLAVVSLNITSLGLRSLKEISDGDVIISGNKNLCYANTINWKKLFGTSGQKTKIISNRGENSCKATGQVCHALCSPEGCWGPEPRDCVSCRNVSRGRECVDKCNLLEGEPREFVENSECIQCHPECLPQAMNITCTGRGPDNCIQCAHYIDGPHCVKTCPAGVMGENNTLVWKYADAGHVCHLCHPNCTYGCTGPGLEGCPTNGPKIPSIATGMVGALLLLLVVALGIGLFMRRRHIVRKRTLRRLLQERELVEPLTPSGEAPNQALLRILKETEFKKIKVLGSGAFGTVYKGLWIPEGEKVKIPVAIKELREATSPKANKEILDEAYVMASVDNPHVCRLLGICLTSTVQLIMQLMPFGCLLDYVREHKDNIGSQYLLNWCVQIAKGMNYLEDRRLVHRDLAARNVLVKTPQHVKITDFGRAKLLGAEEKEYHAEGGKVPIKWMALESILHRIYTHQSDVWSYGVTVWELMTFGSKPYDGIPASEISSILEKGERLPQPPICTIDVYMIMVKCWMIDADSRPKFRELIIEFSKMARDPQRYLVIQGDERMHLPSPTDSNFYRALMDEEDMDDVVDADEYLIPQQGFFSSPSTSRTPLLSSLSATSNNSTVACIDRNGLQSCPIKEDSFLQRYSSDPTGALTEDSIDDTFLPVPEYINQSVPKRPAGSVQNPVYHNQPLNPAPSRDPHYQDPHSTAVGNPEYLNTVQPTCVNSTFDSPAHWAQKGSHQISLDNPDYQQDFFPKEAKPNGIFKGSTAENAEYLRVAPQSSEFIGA

Take `C=CC(=O)Nc1cc(Nc2ncc(Cl)c(Nc3ccccc3P(C)(C)=O)n2)c(OC)cc1OCC1CCN(C)CC1` [Example 3, N-(5-((5-chloro-4-((2-(dimethylphosphoryl)phenyl)amino)pyrimidin-2-yl)amino)-4-methoxy-2-((1-methylpiperidin-4-yl)methoxy)phenyl)acrylamide]: the IC50 (as a rule, the concentration at which inhibition is half-maximal) in experiment [1] is at least 0.25 µM; in experiment [2], 0.05 to 0.1 µM; at EGFR L858R it was under 0.05 µM; on EGFR L858R/T790M, under 0.05 µM. Also, the GI50 in experiment [3] is at least 0.25 µM; in experiment [4], 0.101 to 0.25 µM.

With `C=CC(=O)Nc1cc(Nc2ncc(Cl)c(Nc3ccccc3P(C)(C)=O)n2)c(OC)cc1OCCN1CCOCC1` [Example 4, N-(5-((5-chloro-4-((2-(dimethylphosphoryl)phenyl)amino)pyrimidin-2-yl)amino)-4-methoxy-2-(2-morpholinoethoxy)phenyl)acrylamide], the IC50 in experiment [1] was at least 0.25 µM; in experiment [2], under 0.05 µM; at EGFR L858R, under 0.05 µM; on EGFR L858R/T790M it was under 0.05 µM. Also, the figures for the GI50 in experiment [3] and in experiment [4] were 0.101 to 0.25 µM and 0.05 to 0.1 µM, respectively.

For `C=CC(=O)Nc1cc(Nc2ncc(Cl)c(Nc3ccccc3P(C)(C)=O)n2)c(OC)cc1OCCCN1CCOCC1` [Example 5, N-(5-((5-chloro-4-((2-(dimethylphosphoryl)phenyl)amino)pyrimidin-2-yl)amino)-4-methoxy-2-(3-morpholinopropoxy)phenyl)acrylamide], the IC50 was at least 0.25 µM in experiment [1], 0.101 to 0.25 µM in experiment [2], under 0.05 µM on EGFR L858R and under 0.05 µM on EGFR L858R/T790M. In addition, the GI50 in experiment [3] and in experiment [4] was 0.101 to 0.25 µM each time.

For the molecule `C=CC(=O)Nc1cc(Nc2ncc(Cl)c(Nc3ccccc3P(C)(C)=O)n2)c(OC)cc1OCC1CCOCC1` [Example 6, N-(5-((5-chloro-4-((2-(dimethylphosphoryl)phenyl)amino)pyrimidin-2-yl)amino)-4-methoxy-2-((tetrahydro-2H-pyran-4-yl)methoxy)phenyl)acrylamide], the IC50 in experiment [1] was at least 0.25 µM; in experiment [2] it was at least 0.25 µM; at EGFR L858R, under 0.05 µM; at EGFR L858R/T790M, 0.05 to 0.1 µM. Further, the values for the GI50 in experiment [3] and in experiment [4] were 0.101 to 0.25 µM and 0.05 to 0.1 µM, respectively.

`C=CC(=O)Nc1cc(Nc2ncc(Cl)c(Nc3ccccc3P(C)(C)=O)n2)c(OC)cc1OCC1CCCCN1C` (stereo not drawn) [Example 7, N-(5-((5-chloro-4-((2-(dimethylphosphoryl)phenyl)amino)pyrimidin-2-yl)amino)-4-methoxy-2-((1-methylpiperidin-2-yl)methoxy)phenyl)acrylamide]: the IC50 is at least 0.25 µM in experiment [1], under 0.05 µM in experiment [2], under 0.05 µM at EGFR L858R and under 0.05 µM at EGFR L858R/T790M. The GI50 in experiment [3] and in experiment [4] was under 0.05 µM each time.

Consider `C=CC(=O)Nc1cc(Nc2ncc(Cl)c(Nc3ccccc3P(C)(C)=O)n2)c(OC)cc1OCCN1CCCCC1` [Example 8, N-(5-((5-chloro-4-((2-(dimethylphosphoryl)phenyl)amino)pyrimidin-2-yl)amino)-4-methoxy-2-(2-(piperidin-1-yl)ethoxy)phenyl)acrylamide], for which the IC50 in experiment [1] was at least 0.25 µM; in experiment [2] it was under 0.05 µM; on EGFR L858R, under 0.05 µM; on EGFR L858R/T790M, under 0.05 µM. Also, the GI50 in experiment [3] and in experiment [4] was under 0.05 µM throughout.

Consider `C=CC(=O)Nc1cc(Nc2ncc(Cl)c(Nc3ccccc3P(C)(C)=O)n2)c(OC)cc1OC1COC1` [Example 9, N-(5-((5-chloro-4-((2-(dimethylphosphoryl)phenyl)amino)pyrimidin-2-yl)amino)-4-methoxy-2-(oxetan-3-yloxy)phenyl)acrylamide], for which the IC50 in experiment [1] was at least 0.25 µM; in experiment [2], at least 0.25 µM; on EGFR L858R, under 0.05 µM; on EGFR L858R/T790M, under 0.05 µM. The GI50 was 0.05 to 0.1 µM in experiment [3] and under 0.05 µM in experiment [4].

With `C=CC(=O)Nc1cc(Nc2ncc(Cl)c(Nc3ccccc3P(C)(C)=O)n2)c(OC)cc1OCc1cccnc1` [Example 10, N-(5-((5-chloro-4-((2-(dimethylphosphoryl)phenyl)amino)pyrimidin-2-yl)amino)-4-methoxy-2-(pyridin-3-ylmethoxy)phenyl)acrylamide], the half-maximal inhibitory concentration (IC50) is at least 0.25 µM in experiment [1], 0.05 to 0.1 µM in experiment [2], under 0.05 µM on EGFR L858R and under 0.05 µM on EGFR L858R/T790M. Moreover, the results for the GI50 in experiment [3] and in experiment [4] were 0.101 to 0.25 µM and 0.05 to 0.1 µM, respectively.

On to `C=CC(=O)Nc1cc(Nc2ncc(Cl)c(Nc3ccccc3P(C)(C)=O)n2)c(OC)cc1OCc1ccncc1` [Example 11, N-(5-((5-chloro-4-((2-(dimethylphosphoryl)phenyl)amino)pyrimidin-2-yl)amino)-4-methoxy-2-(pyridin-4-ylmethoxy)phenyl)acrylamide], for which the IC50 in experiment [1] is at least 0.25 µM; in experiment [2] it was under 0.05 µM; on EGFR L858R, under 0.05 µM; on EGFR L858R/T790M it was under 0.05 µM. Further, the GI50 in experiment [3] was 0.101 to 0.25 µM; in experiment [4] it was under 0.05 µM.

Consider `C=CC(=O)Nc1cc(Nc2ncc(Cl)c(Nc3ccccc3P(C)(C)=O)n2)c(OC)cc1OC1CCCN(C)C1` (stereo not drawn) [Example 12, N-(5-((5-chloro-4-((2-(dimethylphosphoryl)phenyl)amino)pyrimidin-2-yl)amino)-4-methoxy-2-((1-methylpiperidin-3-yl)oxy)phenyl)acrylamide], for which the 50% inhibitory concentration (IC50) was at least 0.25 µM in experiment [1], under 0.05 µM in experiment [2], under 0.05 µM on EGFR L858R and under 0.05 µM on EGFR L858R/T790M. For the same molecule, the GI50 in experiment [3] and in experiment [4] was under 0.05 µM in each case.

With `C=CC(=O)Nc1cc(Nc2ncc(Cl)c(Nc3ccccc3P(C)(C)=O)n2)c(OC)cc1OC1CCN(C)C1` (stereo not drawn) [Example 13, N-(5-((5-chloro-4-((2-(dimethylphosphoryl)phenyl)amino)pyrimidin-2-yl)amino)-4-methoxy-2-((1-methylpyrrolidin-3-yl)oxy)phenyl)acrylamide], the IC50 was at least 0.25 µM in experiment [1], under 0.05 µM in experiment [2], under 0.05 µM at EGFR L858R and under 0.05 µM at EGFR L858R/T790M. For the same molecule, the GI50 in experiment [3] and in experiment [4] was under 0.05 µM throughout.

On to `C=CC(=O)Nc1cc(Nc2ncc(Cl)c(Nc3ccccc3P(C)(C)=O)n2)c(OC)cc1OC(COC)CN1CCC1` (stereo not drawn) [Example 15, N-(2-((1-(azetidin-1-yl)-3-methoxypropan-2-yl)oxy)-5-((5-chloro-4-((2-(dimethylphosphoryl)phenyl)amino)pyrimidin-2-yl)amino)-4-methoxyphenyl)acrylamide], for which the IC50 in experiment [1] was at least 0.25 µM; in experiment [2], under 0.05 µM; at EGFR L858R, under 0.05 µM; on EGFR L858R/T790M it was under 0.05 µM. Moreover, the GI50 in experiment [3] and in experiment [4] was under 0.05 µM each time.

Consider `C=CC(=O)Nc1cc(Nc2ncc(Cl)c(Nc3ccccc3P(C)(C)=O)n2)c(OC)cc1N1CCC(N2CCN(C)CC2)CC1` [Example 22, N-(5-((5-chloro-4-((2-(dimethylphosphoryl)phenyl)amino)pyrimidin-2-yl)amino)-4-methoxy-2-(4-(4-methylpiperazin-1-yl)piperidin-1-yl)phenyl)acrylamide], for which the IC50 in experiment [1] is at least 0.25 µM; in experiment [2] it was under 0.05 µM; on EGFR L858R, under 0.05 µM; on EGFR L858R/T790M, under 0.05 µM. Also, the GI50 in experiment [3] and in experiment [4] was 0.05 to 0.1 µM in each case.

For the molecule `C=CC(=O)Nc1cc(Nc2ncc(Cl)c(Nc3ccccc3P(C)(C)=O)n2)c(OC)cc1N1CCC(N(C)C)CC1` [Example 23, N-(5-((5-chloro-4-((2-(dimethylphosphoryl)phenyl)amino)pyrimidin-2-yl)amino)-2-(4-(dimethylamino)piperidin-1-yl)-4-methoxyphenyl)acrylamide], the IC50 was at least 0.25 µM in experiment [1], under 0.05 µM in experiment [2], under 0.05 µM at EGFR L858R and under 0.05 µM on EGFR L858R/T790M. The GI50 is 0.101 to 0.25 µM in experiment [3] and under 0.05 µM in experiment [4].

For the molecule `C=CC(=O)Nc1cc(Nc2ncc(Cl)c(Nc3ccccc3P(C)(C)=O)n2)c(OC)cc1N1CCC(N(C)C)C1` (stereo not drawn) [Example 24, N-(5-((5-chloro-4-((2-(dimethylphosphoryl)phenyl)amino)pyrimidin-2-yl)amino)-2-(3-(dimethylamino)pyrrolidin-1-yl)-4-methoxyphenyl)acrylamide], the IC50 in experiment [1] was at least 0.25 µM; in experiment [2] it was under 0.05 µM; on EGFR L858R it was under 0.05 µM; at EGFR L858R/T790M, under 0.05 µM. Besides, the GI50 in experiment [3] and in experiment [4] was under 0.05 µM in each case.
